The values that follow come from patent publication US20250298027A1, “METHOD OF EVALUATING SMALL MOLECULE DISTRIBUTION USING TELLUROPHENE ANALOGUES” (THE GOVERNING COUNCIL OF THE UNIVERSITY OF TORONTO, priority 2022, published 2025).

Each structure is given as a SMILES string. Values joined by “and” are separate entries in the source; they are usually repeats but may differ in a detail not shown here. Equal entries are not always repeated. Where two headings read alike, the source gives them in different places.

The term half-life denotes the time in which the quantity being followed falls by half.

Data set [1] has as its target T1, Top2 (Homo sapiens, UniProt P11388).
T1 construct: purchased TopoGEN, Inc
Put plainly: Top2 decatenation assay using kinetoplast DNA. It is filed as biochemical. The following applies: 5, 10, 25 and 50 μM. As for the experimental part: The relative Top2 inhibitory activity of 1 in comparison to teniposide was evaluated in decatenation assays using kinetoplast DNA (kDNA). Decatenation of the DNA, catalyzed by Top2, can be readily resolved using agarose gel electrophoresis.
Top2 decatenation assay: The assay was performed according to manufacturer's protocol (TopoGEN, Inc.). The total reaction volume was 20 μL of assay buffer (120 mM KCl, 50 mM Tris-HCl, 10 mM MgCl2, 0.5 mM DTT, 0.5 mM ATP, and 30 μg/mL BSA) and 120 ng of kinetoplast DNA (kDNA) substrate. One unit of TopoII enzyme in was added to reaction microfuge tubes in the presence or absence of inhibitor. The reaction was incubated for 30 min at 37° C. The reaction was stopped by addition of 5 μL of stop buffer (5% sarkosyl, 0.025% bromophenolblue, and 50% glycerol). The samples were then analyzed using electrophoresis using a 1% agarose gel in Tris-borate-EDTA buffer with 0.5 pg/mL ethidium bromide stain. Gels were imaged using Syngene G: Box Gel Imager (Chemi-XT4 GENESys software with preset for ethidium bromide stained agarose gels). Band intensities were analyzed using ImageJ software.

Data set [2] has as its system PANC-1 cells. The experiment in a line: alamarBlue viability assay in PANC-1 cells. Type of data set: cell-based, Human. The following applies: maximum dose of 25 μM, 72 hours exposure. The method, then: Similarly, PANC1 cells were characterized for later in vivo experiments. Using an alamarBlue viability assay and a proliferative assay, PANC-1 cells were incubated with 1 or teniposide.
AlamarBlue assay: PANC-1 cells were seeded into black, clear-bottom 96-well assay plates (Corning; CLS3603) and incubated for 24 hours. The medium was replaced with […] of teniposide or compound 1. After 72 hours exposure to drug, alamarBlue (Thermo Fisher Scientific; DAL1100) cell viability reagent was added and incubated for 4 hours at 37° C. Fluorescence intensity was measured using an excitation wavelength of 560 nm and an emission of 590 nm. Cell viability was calculated by normalizing to an untreated control.
(In general: The colour change of resazurin is a common sign of viable cells or microbes.)

The test system of data set [3] is HL-60 cells. Put plainly: WST-1 viability assay in HL-60 cells. To be noted: Homo sapiens, HL-60; 24 hours, maximum concentration of 50 μM; read-out: inhibition of proliferation of HL-60 cells. It is filed as cell-based. As for the experimental part:
The toxicity of 1 was compared to teniposide in HL-60 cells after incubation for 24 hours using a WST-1 viability assay.
WST-1 metabolic cytotoxicity assay: HL-60 cells (ATCC® CCL-240TM) were maintained in DMEM media with 2 mM L-glutamine (Gibco) supplemented with 20% calf serum and 100× dilution of penicillin-streptomycin solution (Gibco). Cells were maintained at 37° C. in a humidified atmosphere of 5% CO2 in air. HL-60 cells (100 pL) were seeded into a 96 well clear at a density of 5×10^5 cells/mL. Cells were treated with either DMSO or appropriate inhibitor from DMSO stocks. […] Cells were incubated for 24 h at 37° C. under a 5% CO2 atmosphere. WST-1 reagent (10 pL; Roche Diagnostics, 05015944001) was added to each well and gently mixed by pipetting. Cells were incubated for 1 h at 37° C. under 5% CO2 atmosphere. UV-vis absorbance measurements of each well at 450 nm was recorded using a TECAN Safire 2 plate reader. Data was background corrected against wells that contained cell growth media without cells and WST-1. Experiment was performed in triplicate.
On the technique in general: Tetrazolium dyes change colour on reduction, which living cells bring about.

Data set [4] has as its system Top2. To be noted: fluorescence anisotropy and DNA relaxation gel assays; read-out: IC50 of teniposide in literature; cited from earlier work. Background: In fluorescence polarisation assays a small probe gives low polarisation when free and higher when bound to something large.
The subject of data set [5] is pH2AX^Ser139. Put plainly: pH2AX Western blotting in PANC-1 cells. It is filed as cell-based, Human. To be noted: 1 μM, 24 and 48 hours. The method, then:
Next, the ability of 1 to induce DSBs—the dominant type of DNA damage resulting from Top2 inhibition was investigated. In response to DSBs, a cascade of DNA repair mechanisms are triggered, including-phosphorylation of the histone variant H2AX at Ser139. Thus, the level of pH2AX^Ser139 serves as a reliable marker for Top2-linked DSBs. Western blotting was used to measure pH2AX^Ser139 in PANC-1 cells treated with 1 μM of either 1 or teniposide for 24 and 48 hours.
pH2AX Blotting: PANC-1 cells (0.5×10^6) cells were seeded in 60 mm plastic petri dishes (Corning Inc. NY) and incubated for 18 h. The spent medium is removed and replaced with fresh medium containing drug ([…]) and incubated for either 24 or 48h. Control cells were treated with DMSO only. The cells were then lysed with RIPA buffer (25 mM Tris·HCl PH 7.6, 150 mM NaCl, 1% NP-40, 1% sodium deoxycholate, 0.1% SDS) (ThermoFisher Scientific) containing Halt Protease Inhibitor Cocktail (Cat. No. 78410) and Halt Phosphatase Inhibitor Cocktail (Cat. No. 78420) as per manufacturer's protocol. […] Antibodies (Abcam, Cambridge, MA) targeting the following proteins were used H2AX (S139) (ab11174, polyclonal) and β-tubulin (ab6046, polyclonal).

The test system of data set [6] is pH2AX^Ser139. Put plainly: pH2AX immunohistochemistry of PANC-1 xenograft tumour sections. It is filed as in vivo, mice. The following applies: 20 mg/kg IP, 2 hours. As for the experimental part:
PANC-1 xenograft-bearing mice were injected with either teniposide or the Te-teniposide analogue 1 IP. A dose of 20 mg/kg was selected based on literature reports detailing teniposide drug delivery strategies. After 2 hours, mice were sacrificed and tissues of interest were harvested, formalin fixed, and paraffin embedded. Tissue sections (5 um) were cut and mounted onto microscopy slides. The expression of pH2AX^Ser139 levels were first assessed by immunohistochemistry. Serial sections derived from PANC-1 xenograft tumours were stained with primary antibody and subsequently HRP-conjugated secondary antibody for standard brown staining. DSBs are indicated by large, discrete pH2AX^Ser139 foci. Representative images of immunostained slides show increased pH2AX^Ser139 levels in treated mice relative to saline injected control with clear, punctate staining (FIG. 7).

For data set [7] the following is noted: mice, depending on route of administration and dosing regimen; cited from earlier work.
For data set [8], the system named is Jurkat cells. Put plainly: Cell viability in Jurkat cells (WST-1). Type of data set: cell-based. As for the experimental part: In Jurkat cells treated with increasing concentrations of TeCar 7b, a concentration-dependent reduction in overall cell viability was observed (Table 1). When compared to Carfilzomib, similar concentrations of 7b (Te-Car) were needed to produce a 50% reduction in Jurkat cell viability.
Jurkat cells (CRL-2899) were purchased from ATCC were maintained in Rosewell Park Memorial Institute (RPMI) media supplemented with 10% fetal bovine serum (FBS) and 1% penicillin/streptomycin in a humidified 37° C. incubator with 5% CO2 (g), and cultured as per ATCC guidelines in culture flasks purchased from Starstedt.
Jurkat cells, at a concentration of approximately 12 500 cells/mL, were seeded in a 96 well plate in complete media in dosed with increasing concentrations (0-200 nM) of Carfilzomib or 7b (100 ul final volume) and left to incubate for 44 hours. Each concentration was repeated in triplicate. 10 uL of WST-1 was then added to each well, and the plate was allowed to incubate for 2 hours before the absorbance at 440 nm was measured. Absorbance signal in 100 uL complete media+10 uL WST-1 was first subtracted from each well before plotting the absorbance signal vs log (concentration). The concentration needed to see a 50% reduction in absorbance signal was then determined using GraphPad Prism software.

The subject of data set [9] is Jurkat cells. The experiment in a line: 7b and 8b incorporation into living Jurkat cells with or without Carfilzomib (CyTOF). The following applies: 1 hour. Type of data set: cell-based. As for the experimental part: Co-dosing of cells with Te-Car 7b and Car lead to an approximately 50% reduction in Te labelling confirming the on-target labelling of modified compound (FIG. 10). This evidence supports that TeCar can be used to monitor Carfilzomib's target engagement in a more complex and disease-relevant samples.
Jurkat cells were seeded in […] plastic culture flasks at a concentration of approximately 5 million cells/mL for 24 hours prior to dosing. The cells were dosed with either Carfilzomib, 7b, or 8b at a final concentration of 500 nM, or a combination of Carfilzomib/7b (500 nM each), Carfilzomib/8b (500 nM each), or a DMSO control (final percentage of 0.5%) in complete media for 1 hour.
The media was then immediately removed, and the cells resuspended in 3 mL of cold phosphate-buffered saline (PBS), before being aliquoted into three 1 mL aliquots per each dosing regime. The samples were then prepped for CYTOF® analysis.
Briefly, each sample aliquot was washed three times with cold PBS (1 mL×3). The cells were then fixed, permeabilized, and stained with Cell-ID™ Intercalator-Ir stain in PBS (1 mL) for 1 hour at rt. […]
CYTOF® analysis was conducted the following day. […] The average ^128Te signal in the population of cells (events positive for 191 Ir and 193Ir signal) for each sample was determined.

T1 sequence (P11388 whole entry): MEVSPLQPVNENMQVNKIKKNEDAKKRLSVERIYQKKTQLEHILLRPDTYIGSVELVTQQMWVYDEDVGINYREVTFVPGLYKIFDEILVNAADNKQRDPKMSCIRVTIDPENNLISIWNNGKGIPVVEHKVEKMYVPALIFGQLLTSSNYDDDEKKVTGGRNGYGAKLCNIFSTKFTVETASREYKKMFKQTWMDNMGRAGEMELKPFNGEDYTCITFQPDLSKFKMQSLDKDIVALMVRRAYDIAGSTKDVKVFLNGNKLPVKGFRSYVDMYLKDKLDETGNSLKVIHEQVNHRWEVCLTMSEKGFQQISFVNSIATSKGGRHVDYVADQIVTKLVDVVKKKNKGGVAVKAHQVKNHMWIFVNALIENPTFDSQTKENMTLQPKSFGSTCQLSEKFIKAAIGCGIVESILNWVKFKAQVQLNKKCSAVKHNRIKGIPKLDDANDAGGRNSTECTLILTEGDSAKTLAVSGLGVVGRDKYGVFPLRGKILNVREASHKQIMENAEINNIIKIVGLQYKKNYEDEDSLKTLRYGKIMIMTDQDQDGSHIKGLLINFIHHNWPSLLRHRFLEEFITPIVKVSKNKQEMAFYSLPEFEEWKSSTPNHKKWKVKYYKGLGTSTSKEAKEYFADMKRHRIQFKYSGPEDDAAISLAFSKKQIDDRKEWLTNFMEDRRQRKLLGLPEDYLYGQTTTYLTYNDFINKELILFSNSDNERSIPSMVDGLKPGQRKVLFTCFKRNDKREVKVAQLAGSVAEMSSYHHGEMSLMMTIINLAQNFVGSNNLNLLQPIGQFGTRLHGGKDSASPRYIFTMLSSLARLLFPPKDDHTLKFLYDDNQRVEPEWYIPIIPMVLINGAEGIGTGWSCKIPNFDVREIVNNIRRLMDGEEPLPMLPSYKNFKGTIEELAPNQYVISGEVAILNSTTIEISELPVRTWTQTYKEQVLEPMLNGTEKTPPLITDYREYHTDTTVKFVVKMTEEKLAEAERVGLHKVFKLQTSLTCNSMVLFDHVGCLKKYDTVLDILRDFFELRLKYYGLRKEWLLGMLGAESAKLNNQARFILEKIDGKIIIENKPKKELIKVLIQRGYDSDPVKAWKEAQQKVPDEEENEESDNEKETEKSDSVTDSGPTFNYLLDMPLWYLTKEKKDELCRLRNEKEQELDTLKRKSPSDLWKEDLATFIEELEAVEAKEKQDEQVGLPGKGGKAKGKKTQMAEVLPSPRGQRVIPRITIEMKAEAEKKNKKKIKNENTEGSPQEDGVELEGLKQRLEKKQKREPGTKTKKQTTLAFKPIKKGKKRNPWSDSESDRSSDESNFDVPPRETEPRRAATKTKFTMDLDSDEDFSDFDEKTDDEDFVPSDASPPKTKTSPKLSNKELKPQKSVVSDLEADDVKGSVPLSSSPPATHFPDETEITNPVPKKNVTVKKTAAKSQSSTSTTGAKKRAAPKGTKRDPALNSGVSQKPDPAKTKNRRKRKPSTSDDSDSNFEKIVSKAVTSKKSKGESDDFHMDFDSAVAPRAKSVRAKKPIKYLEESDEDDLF

`COc1cc([C@@H]2c3cc4c(cc3[C@@H](O[C@@H]3O[C@@H]5CO[C@@H](c6cccs6)O[C@H]5[C@H](O)[C@H]3O)[C@H]3COC(=O)[C@H]23)OCO4)cc(OC)c1O` [teniposide, reference compound]: in data set [1], the “inhibition of the decatenation reaction” value is on record as “dose-dependent inhibition”. Further, in data set [2], the “loss of cell viability in PANC-1 cells” value is reported as “almost complete loss of cell viability”. Besides, the inhibition at 50 µM in [3] is at most 60%. For the same compound, in data set [4], the IC50 was 1300 to 9800 nM. The “levels of pH2AX^Ser139 relative to DMSO-treated control” value in [5] is “Increased levels”. Besides, in data set [6], the “pH2AX^Ser139 levels in tumour sections relative to saline injected control” value is “increased”. The half-life in data set [7] was 1 to 5 h.

For the compound `CC(C)C[C@H](NC(=O)[C@H](CCc1ccccc1)NC(=O)CN1CCOCC1)C(=O)N[C@@H](Cc1ccccc1)C(=O)N[C@@H](CC(C)C)C(=O)[C@@]1(C)CO1` [Carfilzomib, reference compound], the IC50 in data set [8] (44 hours, WST-1, Biol. Rep 1-3, read-out: IC50, viability of Jurkat cells, single biological replicate) is 9.99 nM and 9.41 nM; in data set [8] (Homo sapiens, Jurkat, 44 h, WST-1, Biol. Rep 1-3, read-out: IC50, viability of Jurkat cells, single biological replicate) it was 9.13 nM; in data set [8] (Homo sapiens, Jurkat, 44 h, WST-1, average of 3 biological replicates, read-out: IC50, viability of Jurkat cells, Average +/− SD), 9.51 nM.

For the compound `CC(C)C[C@H](NC(=O)[C@H](CCc1ccccc1)NC(=O)CN1CCOCC1)C(=O)N[C@@H](Cc1ccc[te]1)C(=O)N[C@@H](CC(C)C)C(=O)[C@@]1(C)CO1` (single isomer, unassigned) [7b], the IC50 in [8] (Homo sapiens, Jurkat, 44 h, read-out: IC50, viability of Jurkat cells, Average +/− SD, 44 hours, WST-1, average of 3 biological replicates) was 9.71 nM; in data set [8] (Homo sapiens, Jurkat, 44 h, read-out: IC50, viability of Jurkat cells, single biological replicate, 44 hours, WST-1, Biol. Rep 1-3), 9.48 nM; in data set [8] (read-out: IC50, viability of Jurkat cells, single biological replicate, 44 hours, WST-1, Biol. Rep 1-3) it was 9.87 nM and 9.78 nM. The “reduction in Te labelling on co-dosing with Carfilzomib” value in data set [9] (7b and Carfilzomib 500 nM each, ^128Te) is “approximately 50%”. Also, the “accumulation of tellurium within the cells” value in data set [9] (mass cytometry) is “activity dependent accumulation”.
